# In ChEMBL document CHEMBL3102748, “Structure-activity relationship studies on acremomannolipin A, the potent calcium signal modulator with a novel glycolipid structure 2: Role of the alditol side chain stereochemistry” (Bioorg Med Chem, 2014):
# Activity calls are given as the source filed them. The calls are words filed in the database; no cut-off is given here.
# Tested on: Schizosaccharomyces pombe
# Assay: Induction of calcium signaling pathway-mediated cell growth in ppb1-deficient Schizosaccharomyces pombe h+ leu1 ura4-D18 ppb1::ura4+ at 100 uM after 3 days by filter paper disc method in presence of MgCl2
# Assay type: functional, organism-based
row,SMILES,Activity
1,CCCCCCCC(=O)O[C@@H]1[C@H](OC[C@H](O)[C@@H](O)[C@@H](O)[C@H](O)CO)O[C@H](COC(=O)CCCCC)[C@@H](OC(=O)CCCCC)[C@@H]1OC(=O)CCCCC,Active
2,CCCCCCCC(=O)O[C@@H]1[C@H](OC[C@H](O)[C@@H](O)[C@H](O)[C@H](O)CO)O[C@H](COC(=O)CCCCC)[C@@H](OC(=O)CCCCC)[C@@H]1OC(=O)CCCCC,Active
3,CCCCCCCC(=O)O[C@@H]1[C@H](OC[C@@H](O)[C@H](O)[C@@H](O)[C@@H](O)CO)O[C@H](COC(=O)CCCCC)[C@@H](OC(=O)CCCCC)[C@@H]1OC(=O)CCCCC,Active
4,CCCCCCCC(=O)O[C@@H]1[C@H](OC[C@@H](O)[C@H](O)[C@H](O)[C@@H](O)CO)O[C@H](COC(=O)CCCCC)[C@@H](OC(=O)CCCCC)[C@@H]1OC(=O)CCCCC,Active
5,CCCCCCCC(=O)O[C@@H]1[C@H](OC[C@@H](O)[C@@H](O)[C@H](O)[C@@H](O)CO)O[C@H](COC(=O)CCCCC)[C@@H](OC(=O)CCCCC)[C@@H]1OC(=O)CCCCC,Active
6,CCCCCCCC(=O)O[C@@H]1[C@H](OC[C@@H](O)[C@@H](O)[C@H](O)[C@H](O)CO)O[C@H](COC(=O)CCCCC)[C@@H](OC(=O)CCCCC)[C@@H]1OC(=O)CCCCC,Active
